Test results from ChEMBL document CHEMBL5260807, “Discovery of liver-directed glucokinase activator having anti-hyperglycemic effect without hypoglycemia” (Eur J Med Chem, 2017).

Key:
Hexokinase-4 = target: T1, Hexokinase-4 (Homo sapiens, UniProt P35557); test: Activation of recombinant human glucokinase assessed as increase in maximal activation by measuring accumulation of NADH in presence of S0.5 of glucose and NAD by plate reader analysis
T1 sequence (P35557 whole entry): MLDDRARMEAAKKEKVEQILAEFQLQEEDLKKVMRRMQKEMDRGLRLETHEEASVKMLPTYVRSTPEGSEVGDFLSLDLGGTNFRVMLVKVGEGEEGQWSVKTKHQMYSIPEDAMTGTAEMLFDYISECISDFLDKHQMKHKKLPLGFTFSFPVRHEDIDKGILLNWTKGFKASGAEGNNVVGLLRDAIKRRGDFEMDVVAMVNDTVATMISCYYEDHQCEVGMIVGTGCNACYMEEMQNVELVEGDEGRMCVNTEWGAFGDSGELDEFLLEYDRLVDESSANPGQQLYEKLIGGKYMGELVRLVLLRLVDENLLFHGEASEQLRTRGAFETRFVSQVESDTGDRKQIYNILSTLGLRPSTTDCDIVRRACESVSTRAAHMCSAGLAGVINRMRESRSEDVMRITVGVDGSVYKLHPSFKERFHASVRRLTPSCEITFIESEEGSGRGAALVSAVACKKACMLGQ

[1] = Cmax in C57BL/6J mouse at 30 mg/kg,po and measured after 2 hrs by LC-MS/MS analysis; format: ADME, organism-based; design: dose 30 mg/kg, time 2 hrs, route po; settings: in vivo
[2] = Oral bioavailability in C57BL/6J mouse at 30 mg/kg and measured after 2 hrs by LC-MS/MS analysis; format: ADME, organism-based; settings: in vivo
[3] = Drug distribution in C57BL/6J mouse liver at 30 mg/kg,po and measured after 1 hrs by LC-MS/MS analysis; format: ADME, organism-based; settings: read-out: Drug uptake
[4] = Drug distribution in C57BL/6J mouse liver at 30 mg/kg,po and measured after 3 hrs by LC-MS/MS analysis; format: ADME, organism-based; settings: read-out: Drug uptake
[5] = Drug distribution in C57BL/6J mouse in circulatory system at 30 mg/kg,po and measured after 1 hrs by LC-MS/MS analysis; format: ADME, organism-based; settings: read-out: Drug uptake
[6] = Drug distribution in C57BL/6J mouse in circulatory system at 30 mg/kg,po and measured after 3 hrs; format: ADME, organism-based; settings: read-out: Drug uptake
[7] = AUC(0 to t) in C57BL/6J mouse at 30 mg/kg,po; format: ADME, organism-based; design: dose 30 mg/kg, route po; settings: in vivo
[8] = target: T2, Hexokinase-4 (Rattus norvegicus) (UniProt P17712); test: Activation of glucokinase in rat Primary hepatocytes assessed as fold increase in glycogen synthesis at 10 uM incubated for 30 mins using [U14C]-D-glucose as substrate by Microbeta TriLux luminescence counter analysis; format: cell-based; settings: Primary hepatocyte, filed as activator
T2 sequence (whole entry): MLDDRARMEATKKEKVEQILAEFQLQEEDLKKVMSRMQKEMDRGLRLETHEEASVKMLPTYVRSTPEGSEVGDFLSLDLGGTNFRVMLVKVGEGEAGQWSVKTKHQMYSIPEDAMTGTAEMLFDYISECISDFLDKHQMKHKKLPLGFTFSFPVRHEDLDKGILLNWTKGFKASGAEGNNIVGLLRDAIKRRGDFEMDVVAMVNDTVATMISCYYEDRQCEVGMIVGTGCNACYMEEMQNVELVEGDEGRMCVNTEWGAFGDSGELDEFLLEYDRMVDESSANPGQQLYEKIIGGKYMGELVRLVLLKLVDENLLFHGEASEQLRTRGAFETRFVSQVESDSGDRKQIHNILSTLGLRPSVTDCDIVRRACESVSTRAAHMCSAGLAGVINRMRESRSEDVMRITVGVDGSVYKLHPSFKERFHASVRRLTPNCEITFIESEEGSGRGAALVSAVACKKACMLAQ

[9] = Clearance in C57BL/6J mouse at 3 mg/kg,iv and measured after 2 hrs by LC-MS/MS analysis; format: ADME, organism-based; settings: in vivo
[10] = Volume of distribution at steady state in C57BL/6J mouse at 3 mg/kg,iv and measured after 2 hrs by LC-MS/MS analysis; format: ADME, organism-based; settings: in vivo, read-out: Vdss
[11] = Half life in C57BL/6J mouse at 3 mg/kg,iv and measured after 2 hrs by LC-MS/MS analysis; format: ADME, organism-based; settings: in vivo
[12] = Drug uptake in mouse hepatocytes at 1 to 100 uM incubated for 5 mins at 37 degreeC by LC-MS/MS analysis; format: ADME, cell-based, Hepatocyte; settings: dose 1-100 µM
[13] = Drug uptake in mouse hepatocytes at 1 to 100 uM incubated for 5 mins at 4 degreeC by LC-MS/MS analysis; format: ADME, cell-based, Hepatocyte; settings: dose 1-100 µM
[14] = Inhibition of drug uptake in mouse hepatocytes at 1 to 100 uM incubated for 5 mins in presence of rifamycin SV by LC-MS/MS analysis; format: cell-based, Hepatocyte; settings: dose 1-100 µM
Mus musculus [15] = test: Anti-hyperglycemic activity against diet induced obese C57BL/6J mouse assessed as reduction in AUCglucose level at 30 mg/kg ,po and measured upto 180 mins by OGTT; format: functional; design: scale not given: the % may be the effect or the level left; settings: 3 h
Mus musculus [16] = test: Anti-hyperglycemic activity against diet induced obese C57BL/6J mouse assessed as reduction in AUCglucose level at 100 mg/kg ,po and measured upto 180 mins by OGTT; format: functional; design: scale not given: the % may be the effect or the level left; settings: 3 h
[17] = Hypoglycemic activity in normoglycemic C57BL/6J mouse at 300 mg/kg ,po and measured upto 180 mins by glucose analysis; format: toxicity, organism-based; settings: in vivo, 3 h
[18] = Hypoglycemic activity in normoglycemic C57BL/6J mouse assessed as decrease in blood glucose level at 300 mg/kg ,po and measured upto 180 mins by glucose analysis; format: toxicity, organism-based; settings: in vivo, 3 h
[19] = target: T3, Hexokinase-4 (Homo sapiens) (UniProt P35557); test: Activation of recombinant human glucokinase assessed as increase in maximal activation by measuring accumulation of NADH at 60 uM in presence of S0.5 of glucose and NAD by plate reader analysis; settings: filed as activator
T3 sequence (whole entry): T1 sequence (P35557 whole entry)

[20] = AUC(0 to 24 hrs) in C57BL/6J mouse at 30 mg/kg,po and measured after 2 hrs by LC-MS/MS analysis; format: ADME, organism-based; design: time 2 hrs, dose 30 mg/kg, route po; settings: in vivo
[21] = Clearance in C57BL/6J mouse at 1 mg/kg,iv and measured after 2 hrs by LC-MS/MS analysis; format: ADME, organism-based; settings: in vivo
[22] = Volume of distribution at steady state in C57BL/6J mouse at 1 mg/kg,iv and measured after 2 hrs by LC-MS/MS analysis; format: ADME, organism-based; settings: in vivo, read-out: Vdss
[23] = Half life in C57BL/6J mouse at 1 mg/kg,iv and measured after 2 hrs by LC-MS/MS analysis; format: ADME, organism-based; settings: in vivo
Mus musculus [24] = test: Anti-hyperglycemic activity against diet induced obese C57BL/6J mouse assessed as blood glucose level at 10 to 300 mg/kg ,po and measured upto 180 mins by OGTT; format: functional, organism-based; settings: dose 10-300 mg/kg
[25] = Hypoglycemic activity in normoglycemic C57BL/6J mouse assessed as decrease in blood glucose level at 100 mg/kg ,po and measured upto 180 mins by glucose analysis; format: toxicity, organism-based; settings: in vivo, 3 h
[26] = Drug uptake in C57BL/6J mouse plasma at 30 mg/kg,po and measured after 1 hrs; format: ADME, organism-based
[27] = Drug uptake in C57BL/6J mouse plasma at 30 mg/kg,po and measured after 3 hrs; format: ADME, organism-based

O=C(Nc1ncc(CN2CCCC2C(=O)O)s1)C(Oc1ccc(F)cc1F)c1ccc(S(=O)(=O)C2CC2)cc1 (centres undefined)
EC50 (Hexokinase-4): > 10000 nM

O=C(O)c1ccc(Oc2cnc(NC(=O)[C@H](Oc3ccc(F)cc3F)c3ccc(S(=O)(=O)C4CC4)cc3)s2)cc1
Cmax [1]: 13.3 µM | bioavailability [2]: 86% | concentration at 1 h [3]: 215 µM | concentration at 3 h [4]: 184 µM | concentration at 1 h [5]: 6 µM | concentration at 3 h [6]: 2.7 µM | AUC(0-t) [7]: 22 µM·h | EC50 (Hexokinase-4): 34 nM | fold change (FC) [8]: 12.2 | clearance [9]: 32.6 mL/min/kg | Vd [10]: 1.67 L/kg | half-life [11]: 2.16 h | Drug uptake [12]: 30% | Drug uptake [13]: < 5% | inhibition at 5 min, up to 100 µM ([14]; mouse hepatocytes, with rifamycin SV): 90% | Activity (Mus musculus [15]): 21% | Activity (Mus musculus [16]): 34% | Activity [17]: Not Active | Activity [18]: Active

O=C(O)C1CCN(Cc2cnc(NC(=O)C(Oc3ccc(F)cc3F)c3ccc(S(=O)(=O)C4CC4)cc3)s2)CC1 (centres undefined)
EC50 (Hexokinase-4): > 10000 nM

O=C(O)Cc1ccc(Oc2cnc(NC(=O)C(Oc3ccc(F)cc3F)c3ccc(S(=O)(=O)C4CC4)cc3)s2)cc1 (centres undefined)
EC50 (Hexokinase-4): 400 nM

CC(Oc1ccc(F)cc1F)(C(=O)Nc1nc(CC(=O)O)c(Cl)s1)c1ccc(S(=O)(=O)N2CCCCC2)cc1 (centres undefined)
EC50 (Hexokinase-4): > 20000 nM | Activity [19]: 60%

O=C(O)C#Cc1cnc(NC(=O)C(Oc2ccc(F)cc2F)c2ccc(S(=O)(=O)C3CC3)cc2)s1 (centres undefined)
EC50 (Hexokinase-4): 2300 nM

O=C(O)c1ccc(Cc2cnc(NC(=O)C(Oc3ccc(F)cc3F)c3ccc(S(=O)(=O)C4CC4)cc3)s2)cc1 (centres undefined)
EC50 (Hexokinase-4): 450 nM

CC(C)(Oc1ccc(F)cc1F)C(=O)Nc1nc(CC(=O)O)c(Cl)s1
Cmax [1]: 326 µM | AUC(0-t) at 2 h [20]: 802 µM·h | clearance [21]: 3.5 mL/min/kg | Vd [22]: 0.4 L/kg | half-life [23]: 1 h | bioavailability [2]: 100% | concentration at 1 h [3]: 111 µM | concentration at 3 h [4]: 104 µM | concentration at 1 h [5]: 220 µM | concentration at 3 h [6]: 85 µM | EC50 (Hexokinase-4): 7000 nM | Activity (Mus musculus [24]): Dose-Dependent Effect | Activity [25]: < 60 mg/dL | Drug uptake [12]: < 5% | Drug uptake [13]: 5% | inhibition (INH) ([14]; hepatocytes, 5 min, 100 µM): Not Active

O=C(O)c1ccc(Oc2cnc(NC(=O)C(Oc3ccc(F)cc3F)c3ccc(S(=O)(=O)N4CCCC4)cc3)s2)cc1 (centres undefined)
EC50 (Hexokinase-4): 240 nM | fold change (FC) [8]: 3.76

O=C(O)c1ccc(Oc2cnc(NC(=O)C(Oc3ccc(F)cc3F)c3ccc(S(=O)(=O)C4CC4)cc3)s2)cc1 (centres undefined)
EC50 (Hexokinase-4): 190 nM | fold change (FC) [8]: 11.4

CC(C)(Oc1ccc(F)cc1F)C(=O)Nc1ncc(Oc2ccc(C(=O)O)cc2)s1
concentration at 1 h [3]: 23.3 µM | concentration at 3 h [4]: 11.1 µM | EC50 (Hexokinase-4): 6200 nM | concentration at 1 h [26]: 8.8 µM | concentration at 3 h [27]: 1.4 µM

O=C(O)c1ccc(Oc2cnc(NC(=O)C(Oc3ccc(F)cc3F)c3ccc(S(=O)(=O)N4CCCCC4)cc3)s2)cc1 (centres undefined)
fold change (FC) [8]: 3.4

O=C(O)Cc1nc(NC(=O)C(Oc2ccc(F)cc2F)c2ccc(S(=O)(=O)N3CCCCC3)cc2)sc1Cl (centres undefined)
EC50 (Hexokinase-4): 500 nM

O=C(O)c1ccc(Oc2cnc(NC(=O)C(Oc3ccc(F)cc3F)c3ccc(S(=O)(=O)C4CCOCC4)cc3)s2)cc1 (centres undefined)
EC50 (Hexokinase-4): 310 nM | fold change (FC) [8]: 3.04

O=C(O)c1cccc(Oc2cnc(NC(=O)C(Oc3ccc(F)cc3F)c3ccc(S(=O)(=O)C4CC4)cc3)s2)c1 (centres undefined)
EC50 (Hexokinase-4): 2730 nM

O=C(O)c1ccc(Oc2cnc(NC(=O)[C@@H](Oc3ccc(F)cc3F)c3ccc(S(=O)(=O)C4CC4)cc3)s2)cc1
EC50 (Hexokinase-4): 690 nM

O=C(O)c1ccc(Oc2cnc(NC(=O)C(Oc3ccc(F)cc3F)c3ccc(S(=O)(=O)N4CCOCC4)cc3)s2)cc1 (centres undefined)
EC50 (Hexokinase-4): 330 nM | fold change (FC) [8]: 3
